Data reported in PubChem BioAssay AID1918935 (Molecular Pharmacology Branch, DTP, NCI, 2023).
“And” between values parts separate entries of the source, which are not always exact repeats. Equal values may be shown once.

Tested on: 324938-238-R-J1-PDC complex spheroid viability
Assay: Anticancer human tumor 324938-238-R-J1-PDC patient-derived bladder carcinoma cell line growth inhibition
Conditions: for viability, T/C: stronger effect = lower value
In short: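 Drug combinations with the LSD1 inhibitor iadademstat tested on tumor cells co-cultured as spheroids with endothelial cells and mesenchymal stem cells. Concentrations descended in half-log increments from clinical Cmax or 10 microM.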

[1] = curve of first compound, second compound 0.1 µM
[2] = curve of first compound, second compound 0.316 µM
[3] = curve of first compound, second compound 1 µM
[4] = curve of first compound, second compound 3.16 µM
[5] = curve of first compound, second compound 10 µM
[6] = second compound 0.1 µM, first compound 0.00949 µM
[7] = second compound 0.1 µM, first compound 0.03 µM
[8] = second compound 0.1 µM, first compound 0.0949 µM
[9] = second compound 0.1 µM, first compound 0.3 µM
[10] = second compound 0.1 µM, first compound 0.949 µM
[11] = second compound 0.1 µM, first compound 3 µM
[12] = second compound 0.316 µM, first compound 0.00949 µM
[13] = second compound 0.316 µM, first compound 0.03 µM
[14] = second compound 0.316 µM, first compound 0.0949 µM
[15] = second compound 0.316 µM, first compound 0.3 µM
[16] = second compound 0.316 µM, first compound 0.949 µM
[17] = second compound 0.316 µM, first compound 3 µM
[18] = second compound 1 µM, first compound 0.00949 µM
[19] = second compound 1 µM, first compound 0.03 µM
[20] = second compound 1 µM, first compound 0.0949 µM
[21] = second compound 1 µM, first compound 0.3 µM
[22] = second compound 1 µM, first compound 0.949 µM
[23] = second compound 1 µM, first compound 3 µM
[24] = second compound 3.16 µM, first compound 0.00949 µM
[25] = second compound 3.16 µM, first compound 0.03 µM
[26] = second compound 3.16 µM, first compound 0.0949 µM
[27] = second compound 3.16 µM, first compound 0.3 µM
[28] = second compound 3.16 µM, first compound 0.949 µM
[29] = second compound 3.16 µM, first compound 3 µM
[30] = second compound 10 µM, first compound 0.00949 µM
[31] = second compound 10 µM, first compound 0.03 µM
[32] = second compound 10 µM, first compound 0.0949 µM
[33] = second compound 10 µM, first compound 0.3 µM
[34] = second compound 10 µM, first compound 0.949 µM
[35] = second compound 10 µM, first compound 3 µM
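Further: spheroids also contain HUVEC and human MSCs and agents combined with iadademstat; spheroids exposed to agents for 7 days before readout.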

Compound: NS(=O)(=O)OCC1CC(n2ccc3c(NC4CCc5ccccc54)ncnc32)CC1O (configuration not stated) + NC1CCC(NC2CC2c2ccccc2)CC1
- IC50 [1]: 336 nM
- IC50 [2]: 336 nM
- IC50 [3]: 390 nM
- IC50 [4]: 309 nM
- IC50 [5]: 323 nM
- viability, T/C [6]: 81.7%
- viability, T/C [7]: 78.5%
- viability, T/C [8]: 84.7%
- viability, T/C [9]: 54.2%
- viability, T/C [10]: 11.7%
- viability, T/C [11]: 11.9%
- viability, T/C [12]: 86.5%
- viability, T/C [13]: 88.1%
- viability, T/C [14]: 79.9%
- viability, T/C [15]: 54.7%
- viability, T/C [16]: 14.3%
- viability, T/C [17]: 11.5%
- viability, T/C [18]: 79.2%
- viability, T/C [19]: 84.3%
- viability, T/C [20]: 82.4%
- viability, T/C [21]: 60.1%
- viability, T/C [22]: 15.7%
- viability, T/C [23]: 15.9%
- viability, T/C [24]: 77.6%
- viability, T/C [25]: 74.5%
- viability, T/C [26]: 83.3%
- viability, T/C [27]: 50.9%
- viability, T/C [28]: 15.5%
- viability, T/C [29]: 15.8%
- viability, T/C [30]: 86.3%
- viability, T/C [31]: 72.8%
- viability, T/C [32]: 79.9%
- viability, T/C [33]: 52.2%
- viability, T/C [34]: 16.3%
- viability, T/C [35]: 13.3%

Compound: COc1cc(C2c3cc4c(cc3C(OC3OC5COC(C)OC5C(O)C3O)C3COC(=O)C23)OCO4)cc(OC)c1O (configuration not stated) + NC1CCC(NC2CC2c2ccccc2)CC1
- IC50 [1]: 56.7 nM
- IC50 [2]: 54.8 nM
- IC50 [3]: 51.3 nM
- IC50 [4]: 54.7 nM
- IC50 [5]: 83.3 nM
- viability, T/C [6]: 83.9%
- viability, T/C [7]: 67%
- viability, T/C [8]: 35.3%
- viability, T/C [9]: 22.2%
- viability, T/C [10]: 21.9%
- viability, T/C [11]: 9.11%
- viability, T/C [12]: 84.9%
- viability, T/C [13]: 64.9%
- viability, T/C [14]: 35.3%
- viability, T/C [15]: 23.4%
- viability, T/C [16]: 19%
- viability, T/C [17]: 10%
- viability, T/C [18]: 76.4%
- viability, T/C [19]: 61.6%
- viability, T/C [20]: 36.8%
- viability, T/C [21]: 22.6%
- viability, T/C [22]: 22.1%
- viability, T/C [23]: 10.1%
- viability, T/C [24]: 71.8%
- viability, T/C [25]: 64%
- viability, T/C [26]: 36.1%
- viability, T/C [27]: 27.1%
- viability, T/C [28]: 21.3%
- viability, T/C [29]: 12.1%
- viability, T/C [30]: 67.4%
- viability, T/C [31]: 67.9%
- viability, T/C [32]: 47.1%
- viability, T/C [33]: 23.8%
- viability, T/C [34]: 18.6%
- viability, T/C [35]: 13.2%

Compound: CC1COCCN1c1cc(C2(S(C)(=N)=O)CC2)nc(-c2ccnc3[nH]ccc23)n1 (configuration not stated) + NC1CC1c1ccc(-c2cccc(O)c2)cc1
- IC50 [1]: 507 nM
- IC50 [2]: 301 nM
- IC50 [3]: 304 nM
- IC50 [4]: 374 nM
- IC50 [5]: 294 nM
- viability, T/C (second compound 0.1 µM, first compound 0.0316 µM): 86.1%
- viability, T/C (second compound 0.1 µM, first compound 0.1 µM): 81.3%
- viability, T/C (second compound 0.1 µM, first compound 0.316 µM): 58.3%
- viability, T/C (second compound 0.1 µM, first compound 1 µM): 35.9%
- viability, T/C (second compound 0.1 µM, first compound 3.16 µM): 18%
- viability, T/C (second compound 0.1 µM, first compound 10 µM): 8.83%
- viability, T/C (second compound 0.316 µM, first compound 0.0316 µM): 80.1%
- viability, T/C (second compound 0.316 µM, first compound 0.1 µM): 71%
- viability, T/C (second compound 0.316 µM, first compound 0.316 µM): 46.3%
- viability, T/C (second compound 0.316 µM, first compound 1 µM): 30.8%
- viability, T/C (second compound 0.316 µM, first compound 3.16 µM): 20.5%
- viability, T/C (second compound 0.316 µM, first compound 10 µM): 8.77%
- viability, T/C (second compound 1 µM, first compound 0.0316 µM): 74.5%
- viability, T/C (second compound 1 µM, first compound 0.1 µM): 65.3%
- viability, T/C (second compound 1 µM, first compound 0.316 µM): 47.9%
- viability, T/C (second compound 1 µM, first compound 1 µM): 34.6%
- viability, T/C (second compound 1 µM, first compound 3.16 µM): 21.8%
- viability, T/C (second compound 1 µM, first compound 10 µM): 9.55%
- viability, T/C (second compound 3.16 µM, first compound 0.0316 µM): 67.6%
- viability, T/C (second compound 3.16 µM, first compound 0.1 µM): 71.5%
- viability, T/C (second compound 3.16 µM, first compound 0.316 µM): 47.8%
- viability, T/C (second compound 3.16 µM, first compound 1 µM): 35.9%
- viability, T/C (second compound 3.16 µM, first compound 3.16 µM): 22.2%
- viability, T/C (second compound 3.16 µM, first compound 10 µM): 10.4%
- viability, T/C (second compound 10 µM, first compound 0.0316 µM): 75%
- viability, T/C (second compound 10 µM, first compound 0.1 µM): 66.1%
- viability, T/C (second compound 10 µM, first compound 0.316 µM): 45.7%
- viability, T/C (second compound 10 µM, first compound 1 µM): 36.4%
- viability, T/C (second compound 10 µM, first compound 3.16 µM): 21.2%
- viability, T/C (second compound 10 µM, first compound 10 µM): 12.2%

Compound: COc1cc(Nc2ncc3c(n2)-c2ccc(Cl)cc2C(c2c(F)cccc2OC)=NC3)ccc1C(=O)O
- viability, T/C (compound 0.00316 µM): 91.2% and 90.6%
- viability, T/C (compound 0.01 µM): 76.9% and 59%
- viability, T/C (compound 0.0316 µM): 35.7% and 26.8%
- viability, T/C (compound 0.1 µM): 19.6% and 15.6%
- viability, T/C (compound 0.316 µM): 18.6% and 13.9%
- viability, T/C (compound 1 µM): 15.3% and 14.3%
- IC50 (curve of compound): 21.2 nM and 13.8 nM
